Consider four molecules from patent US9274101B2 (BIOLOG, Inc., priority 2001, dated 2016).

Assay [1] has as its system HL-60 cells. In words: HL-60 cells in PM1 and PM2 plates, MTS/MPMS color, % negative control. The format is cell-based, human. To be noted: L-glutamine 13.7 mM (well E1); citric acid 10.4 mM (well F2).
Assay [2] deals with HepG2 cells. In words: HepG2 cells cultured on CYTODEX 3 microcarriers, energy sources. The format is cell-based, human. As to conditions: for activity at 30 µM / activity at 100 µM / activity at 330 µM / activity at 1000 µM / activity at 3300 µM / activity at 10000 µM / activity at 15000 µM / activity at 20000 µM: Homo sapiens, HepG2, 68 h, read-out: Responses of HepG2 Cells Cultured on Microcarriers After 68 hours in Culture and a 4 hour Color Development Period. The procedure, abridged:
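HepG2 cells on CYTODEX 3 microcarriers, held in methylcellulose-containing DME with 10% HI FBS lacking glucose, glutamine and pyruvate, exposed to test energy sources at 0.033–20 mM final. After 68 h at 37 °C, MTS/PMS read at 490 nm (ref 650 nm) after 4–8 h; cell-free background subtracted, normalized to % no-energy-source control.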

For assay [3], the system named is Salmonella typhimurium auxotrophs hisF645 and pyrCΔ73. The format is cell-based.

Molecules are shown by their SMILES.

`NC(=O)CC[C@H](N)C(=O)O` [L-glutamine]: the response in words entry in assay [1] is reported as “strong positive response”; in assay [2] (68 hours culture, responses greater than 140% of the negative control scored positive), “narrow range of responsiveness”. Also, in assay [2] (Conc. 0.03 mM), the activity at 30 µM came to 110%. Also, the activity at 100 µM in assay [2] (Conc. 0.10 mM) was 151%. For the same molecule, the activity at 330 µM in assay [2] (Conc. 0.33 mM) came to 195%. Further, the activity at 1000 µM in assay [2] (Conc. 1.00 mM) was 211%. Besides, in assay [2] (Conc. 3.3 mM), the activity at 3300 µM was 212%. Besides, the activity at 10000 µM in assay [2] (Conc. 10 mM) came to 183%. The activity at 15000 µM in assay [2] (Conc. 15 mM) amounted to 150%. Moreover, the activity at 20000 µM in assay [2] (Conc. 20 mM) was 101%.

Take `Cc1cn([C@H]2C[C@H](O)[C@@H](CO)O2)c(=O)[nH]c1=O` [Thymidine]: the activity at 30 µM in assay [2] (Conc. 0.03 mM) was found to be 87.9%. The activity at 100 µM in assay [2] (Conc. 0.10 mM) came to 101%. The activity at 330 µM in assay [2] (Conc. 0.33 mM) amounted to 97.9%. Further, the activity at 1000 µM in assay [2] (Conc. 1.00 mM) was determined as 99.4%. Further, the activity at 3300 µM in assay [2] (Conc. 3.3 mM) is 89%. Also, the activity at 10000 µM in assay [2] (Conc. 10 mM) turned out to be 71.4%. In assay [2] (Conc. 15 mM), the activity at 15000 µM was found to be 65.2%. The activity at 20000 µM in assay [2] (Conc. 20 mM) turned out to be 34.5%.

Turning to `N[C@@H](Cc1c[nH]cn1)C(=O)O` [L-histidine], the “growth stimulation (well color)” value in assay [3] is “turned purple”.

For `O=C1O[C@@H]([C@H](O)CO)[C@H](O)[C@H]1O` [D-gal acid g-lactone], the “Responses of HepG2 Cells Cultured on Microcarriers After 68 hours in Culture and a 4 hour Color Development Period” value in assay [2] (Conc. 0.03 mM) is recorded as 99.4 % of negative control; in assay [2] (Conc. 0.10 mM), 100.2 % of negative control; in assay [2] (Conc. 0.33 mM), 89.0 % of negative control; in assay [2] (Conc. 1.00 mM), 89.4 % of negative control; in assay [2] (Conc. 3.3 mM) it was 101.7 % of negative control; in assay [2] (Conc. 10 mM) it was 95.2 % of negative control. In addition, the “Responses of HepG2 Cells Cultured on Microcarriers After 68 hours in Culture and a 4 hour Color Development Period” value is listed as 98.6 % of negative control in assay [2] (Conc. 15 mM) and 74.1 % of negative control in assay [2] (Conc. 20 mM).
